Like-named read-outs stand apart in the source and are kept apart here.
Assays:
Type in all cases: in vivo
[1] = test system: Erysiphe cichoracearum on cucumbers; assay: Greenhouse trial, 4 day residual, Erysiphe cichoracearum on cucumbers; settings: Golovinomyces cichoracearum, 96 h, read-out: Observed Efficacy; for pest or weed control at 0.4 ppm: dose rate 0.4 ppm; for pest or weed control at 2 ppm: dose rate 2 ppm; for pest or weed control at 10 ppm: dose rate 10 ppm; for pest or weed control at 50 ppm: dose rate 50 ppm
Procedure, shortened: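 Cucumber plants were sprayed to near run-off with compounds or mixtures (5% acetone/0.05% Tween 20 aqueous). Four days later they were inoculated by dusting with Erysiphe cichoracearum conidia. Percent diseased leaf area was assessed about 7 days after inoculation, and efficacy and Colby synergy were calculated from it.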

[2] = test system: Puccinia recondita on wheat; assay: Greenhouse trial, 4 day residual, Puccinia recondita on wheat; settings: Puccinia recondita, 96 h, read-out: Observed Efficacy; for pest or weed control at 4 ppm: dose rate 4 ppm; for pest or weed control at 16 ppm: dose rate 16 ppm; for pest or weed control at 64 ppm: dose rate 64 ppm; for pest or weed control at 256 ppm: dose rate 256 ppm; for pest or weed control at 0.4 ppm: dose rate 0.4 ppm; for pest or weed control at 2 ppm: dose rate 2 ppm; for pest or weed control at 10 ppm: dose rate 10 ppm; for pest or weed control at 50 ppm: dose rate 50 ppm
Procedure, shortened: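 Wheat plants sprayed at primary-leaf stage with compounds, alone or in mixtures, in 5% acetone/0.05% Tween 20 water, then inoculated 4 days later with Puccinia recondita spore suspension and held 1-2 days in a moist chamber. Percent diseased leaf area scored about 7 days post-inoculation, excluding leaf tips and bases; efficacy calculated, synergy by Colby.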

[3] = test system: Leptosphaeria nodorum on wheat; assay: Greenhouse trial, 4 day residual, Leptosphaeria nodorum on wheat; settings: Parastagonospora nodorum, 96 h, compound alone, read-out: Observed Efficacy; for pest or weed control at 4 ppm: dose rate 4 ppm; for pest or weed control at 16 ppm: dose rate 16 ppm; for pest or weed control at 64 ppm: dose rate 64 ppm; for pest or weed control at 256 ppm: dose rate 256 ppm
Procedure, shortened: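 Wheat at full primary-leaf expansion sprayed with aqueous formulated compounds or mixtures (technical material in 5% acetone/0.05% Tween 20) to near run-off or at 200 l/ha, inoculated 4 days later with spore suspension and held 1-2 days in a moist chamber. Percent diseased leaf area scored about 7 days post-inoculation, excluding leaf tips and bases; synergy judged by Colby formula.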

[4] = test system: Pyrenophora teres on barley; assay: Greenhouse trial, 4 day residual, Pyrenophora teres on barley; settings: Pyrenophora teres, 96 h, 4 day residual, read-out: Observed Efficacy; for pest or weed control at 0.4 ppm: dose rate 0.4 ppm; for pest or weed control at 2 ppm: dose rate 2 ppm; for pest or weed control at 10 ppm: dose rate 10 ppm; for pest or weed control at 50 ppm: dose rate 50 ppm
[5] = test system: Blumeria graminis f. sp. tritici on wheat; assay: Greenhouse trial, 2 day curative, Blumeria graminis f. sp. tritici on wheat; settings: Table XVII, compound alone
Description: (§1) The trials are carried out under greenhouse (Examples 1 to 18) or field conditions (Example 19) in residual or curative applications. The fungicides are applied in single treatments, or in a combination comprising a benzophenone of formula I and a compound selected from (A) through (E) as defined above. The compounds are applied in form of an aqueous spray mix obtained from a concentrated formulation or the technical material.
(§2) 1. Seed is planted in 6 cm diameter plastic pots and maintained in the greenhouse.
(§3) 2. When the primary leaf is fully expanded (in the case of cereals) or several leaves are present (in the case of dicots), formulated test compounds are sprayed with a three nozzle overhead fungicide sprayer to near run-off. Alternatively, a single nozzle overhead track sprayer is used for application of the compounds to cereals at a rate of 200 liters/ha (l/ha). Plants are then allowed to air-dry.
(§4) 3. Inoculation precedes treatment in the case of curative evaluations and follows treatment in case of residual evaluations. For inoculation of powdery mildew disease, plants are set up on greenhouse benches with bottom watering mats and inoculated by dusting them with conidia from infected plants. Between inoculation and treatment for curative evaluations and between treatment and inoculation for residual evaluations, plants are maintained in the greenhouse with bottom watering. For inoculation of non-powdery mildew diseases, an aqueous spore suspension of the pathogen is applied to the plant and the plants are kept 1-2 days in a moist infection chamber before being returned to the greenhouse where they are maintained by bottom watering.
(§5) 4. Disease on the foliage as percent leaf area with disease symptoms/signs is evaluated about 7 days after inoculation. In the case of wheat, the tips and bases of the leaves are excluded from the evaluation. [formula]
(§6) 1. Technical compounds are formulated in a solvent/surfactant system consisting of 5% acetone and 0.05% Tween 20 in deionized water. Compounds are dissolved in acetone prior to addition of the water; the Tween 20 can be added through either the acetone or the water. Dilutions are made using the solvent/surfactant system. Formulated compounds are prepared using deionized water.
(§7) Assessments of the diseases took place at the indicated day after the application of the compounds. Per cent infected leaf area infected was evaluated. The efficacy of the compounds/compounds mixtures to control the diseases was calculated by using the formula given above under item 4: […]
(§8) Synergy of a fungicide mixture was determined by comparing the actual (observed) fungicidal activity of the mixture to the expected fungicidal activity of the mixture as calculated using the COLBY formula given hereinabove.
Fungicidal Efficacy of the Mixture of Different Benzophenones+Metconazole (2 Day Curative) Against Blumeria graminis f. sp. tritici on Wheat
The tank mixes were obtained from technical material of the benzophenones BP-2 and BP-4 and metconazole.

[6] = test system: Uncinula necator on vines; assay: Greenhouse trial, 1 day residual, Uncinula necator on vines; settings: Table XVIII, compound alone
Description: as §1, §2, §3, §4, §5, §6, §7, §8
Fungicidal Efficacy of the Mixture of BP-4+AP-4 (1 Day Residual) Against Uncinula necator on Vines
The tank mixes were obtained from technical material of BP-4 and AP-4. The active ingredients, the type of formulations, the observed and expected efficacies with different rates are given in Table XVIII: […]

[7] = Table XIV (Example 14), 4 day residual
[8] = Table XV (Example 15), 4 day residual

COc1cc(C)c(C(=O)c2c(OC)ccc(Br)c2C)c(OC)c1OC [BP-4, 5-bromo-2′,6-dimethyl-2,4′,5′,6′-tetramethoxybenzophenone]
pest or weed control at 1 ppm ([1]; Table VI, compound alone, dose rate 1 ppm): 1% | pest or weed control at 4 ppm ([1]; Table VI, compound alone, dose rate 4 ppm): 6% | pest or weed control at 16 ppm ([1]; Table VI, compound alone, dose rate 16 ppm): 51% | pest or weed control at 64 ppm ([1]; Table VI, compound alone, dose rate 64 ppm): 100% | pest or weed control at 0.4 ppm ([1]; Table XI, compound alone): 0% | pest or weed control at 2 ppm ([1]; Table XI, compound alone): 2% | pest or weed control at 10 ppm ([1]; Table XI, compound alone): 55% | pest or weed control at 50 ppm ([1]; Table XI, compound alone): 96% | pest or weed control at 0.4 ppm [1, 7]: 0% | pest or weed control at 2 ppm [1, 7]: 0% | pest or weed control at 10 ppm [1, 7]: 13% | pest or weed control at 50 ppm [1, 7]: 97% | pest or weed control at 4 ppm ([2]; Table IX, compound alone): 6% | pest or weed control at 16 ppm ([2]; Table IX, compound alone): 4% | pest or weed control at 64 ppm ([2]; Table IX, compound alone): 16% | pest or weed control at 256 ppm ([2]; Table IX, compound alone): 38% | pest or weed control at 4 ppm ([2]; Table VII, compound alone): 0% | pest or weed control at 16 ppm ([2]; Table VII, compound alone): 0% | pest or weed control at 64 ppm ([2]; Table VII, compound alone): 0% | pest or weed control at 256 ppm ([2]; Table VII, compound alone): 13% | pest or weed control at 0.4 ppm ([2]; Table XII, compound alone): 2% | pest or weed control at 2 ppm ([2]; Table XII, compound alone): 7% | pest or weed control at 10 ppm ([2]; Table XII, compound alone): 10% | pest or weed control at 50 ppm ([2]; Table XII, compound alone): 31% | pest or weed control at 0.4 ppm [2, 8]: 0% | pest or weed control at 2 ppm [2, 8]: 0% | pest or weed control at 10 ppm [2, 8]: 6% | pest or weed control at 50 ppm [2, 8]: 12% | pest or weed control at 4 ppm ([3]; Table VIII): 0% | pest or weed control at 16 ppm ([3]; Table VIII): 0% | pest or weed control at 64 ppm ([3]; Table VIII): 14% | pest or weed control at 256 ppm ([3]; Table VIII): 34% | pest or weed control at 4 ppm ([3]; Table X): 0% | pest or weed control at 16 ppm ([3]; Table X): 10% | pest or weed control at 64 ppm ([3]; Table X): 18% | pest or weed control at 256 ppm ([3]; Table X): 44% | pest or weed control at 0.4 ppm ([4]; Table XIII (Example 13)): 0% | pest or weed control at 2 ppm ([4]; Table XIII (Example 13)): 0% | pest or weed control at 10 ppm ([4]; Table XIII (Example 13)): 34% | pest or weed control at 50 ppm ([4]; Table XIII (Example 13)): 58% | pest or weed control at 0.4 ppm ([4]; Table XVI (Example 16)): 0% | pest or weed control at 2 ppm ([4]; Table XVI (Example 16)): 0% | pest or weed control at 10 ppm ([4]; Table XVI (Example 16)): 0% | pest or weed control at 50 ppm ([4]; Table XVI (Example 16)): 11% | Observed Efficacy ([5]; dose rate 0.67 ppm): 9% | Observed Efficacy ([5]; dose rate 2 ppm): 27% | Observed Efficacy ([5]; dose rate 6 ppm): 42% | Observed Efficacy ([5]; dose rate 18 ppm): 78% | Observed Efficacy ([5]; dose rate 54 ppm): 92% | Observed Efficacy ([6]; dose rate 0.25 ppm): 0% | Observed Efficacy ([6]; dose rate 0.5 ppm): 21% | Observed Efficacy ([6]; dose rate 1 ppm): 28% | Observed Efficacy ([6]; dose rate 2 ppm): 9% | Observed Efficacy ([6]; dose rate 4 ppm): 43% | Observed Efficacy ([6]; dose rate 8 ppm): 42%
